Assay results from article PMC7412073, “Pharmacokinetics and Metabolism of Liposome-Encapsulated 2,4,6-Trihydroxygeranylacetophenone in Rats Using High-Resolution Orbitrap Liquid Chromatography Mass Spectrometry” (Molecules, 2020).
Where two headings read alike, the source gives them in different places. Each block holds one compound with its values, some of them ahead of it.

Legend:
[1] = Metabolite identification in rat blood, urine and feces (UHPLC-MS/MS); format: in vivo, Sprague-Dawley rats; design: key: B, U and F represent blood, urine and feces samples, respectively; B, U and F represent blood, urine and feces samples, respectively; B, U and F represent blood, urine and feces samples, respectively; conditions: rats dosed orally with 20 mg/kg liposomes-encapsulated tHGA, samples over 24 h
Description: Groups 4 to 6 were used for single-dose drug metabolism study. Each rat was kept in individual metabolic cages. Urine and faeces were collected from each rat in the tHGA-treated group 4 and control group 5 at four different times over a period of 24 h. The samples were stored at −80 °C until further analysis. For the determination of plasma metabolites, blood was sampled from each rat in the control group 6, according to the same procedure as in the pharmacokinetic study. Blood samples collected from the tHGA-treated group 2 in the pharmacokinetics study were also used for the metabolism study.
For the drug metabolism study, for each rat, plasma samples collected over a period of 24 h were combined and tHGA was similarly extracted from the samples. For the urine samples, for each rat, samples collected over the 24 h period were combined and centrifuged for 15 min at 14,000 rpm. The supernatant was then vacuum-evaporated at 40 °C to a volume of 5 mL, after which, 30 mL methanol was added, the mixture sonicated for 25 min, followed by centrifuging at 10,000 rpm for 15 min. The supernatant was again vacuum-concentrated at 40 °C, to a volume of 5 mL, filtered through 0.45 μm membrane filter into an LC-MS vial and then injected (10 µL) to UHPLC-MS/MS system for spectral acquisition.
[…] collected over 24 h was homogenized with distilled water in the ratio of 1 g to 3 mL and sonicated for 10 min. From this mixture, 3 mL was taken and mixed with 9 mL methanol. After that, the mixture was sonicated for 30 min and then centrifuged at 14,000 rpm for 15 min. The supernatant was taken to dryness using a rotary evaporator at 40 °C. The residue was then reconstituted in 1 mL ACN (80%), filtered through 0.45 μm membrane filter, and injected to the UHPLC-MS/MS system for acquisition of spectra.
For the identification of tHGA and its metabolites simultaneously, MS detection was operated under a heated electrospray ion source (H-ESI II) using positive/negative switching ionization mode to maximize metabolite coverage in every injection. The H-ESI parameters were optimized as follows: spray voltage (+) and (−) 4.2 and 3.5 kV respectively, capillary temperature 320 °C, S-lens RF level 55, sheath gas flow rate 45, auxiliary gas 10 and sweep gas 2 (manufacturer’s units). Nitrogen was used for the source, Orbitrap bath gas, and the higher energy collision dissociation (HCD) cell collision. The full-scan MS data were recorded across the mass range of 50–1500 m/z. The resolution was 70,000 (FWHM) at m/z 200, with automatic gain control (AGC) target of 1 × 10^6 ions and an auto maximum ion injection time (IT).
All MS data acquired using the Q Exactive MS were controlled by Xcalibur 4.0 software (Thermo Fisher Scientific). The MS data from plasma-, urine-, and feces-treated, as well as the control samples were analyzed using Compound Discoverer software 2.1 (Thermo Fisher Scientific) for the identification of tHGA metabolites. The software extracted information about metabolite m/z values depending on a list of expected metabolites. As no standards or literature information were available to confirm tHGA metabolites structure, tentative elucidation of the metabolites was performed according to Schymanski classification. A list of putative metabolites with the probable metabolism pathway was created for peaks based on MS, MS/MS fragmentation and the isotopic pattern of tHGA. The matching percentage between measured and theoretical MS/MS spectra was determined depending on the existence/absence of theoretical fragments in the MS/MS spectra generated experimentally. In addition, the site of metabolism was determined based on the tHGA structure with the help of a web server site for metabolism predictor [27, 28].

[2] = Short- and long-term stability of tHGA in rat plasma QC samples; format: in vitro ADME; conditions: for Stability RE (%) Short-Term (4 °C): processed rat plasma sample, autosampler 4 °C, 24 h; for Stability RE (%) Short-Term (4 °C) / Stability RE (%) Long-Term (−80 °C): n = 6; for Stability RE (%) Long-Term (−80 °C): rat plasma, 1 month
Description: Short- and long-term stability studies of tHGA in plasma was assessed using six replicates at two concentration levels, LQC and HQC. The QC samples were analyzed against the standard curve which was freshly prepared. The short-term stability was evaluated by analyzing the processed QC samples kept in the autosampler (4 °C) for 24 h. For long-term stability, tHGA plasma samples in low and high concentrations were stored at −80 °C for 1 month.

[3] = Single-dose pharmacokinetic study of free and liposome-encapsulated tHGA in rats (plasma, LC-HRMS); format: in vivo, Sprague-Dawley rats; conditions: for Fr (relative oral bioavailability): PO 20 mg/kg relative to IP 20 mg/kg tHGA-loaded liposomes, rats
Description: Thirty healthy male Sprague-Dawley (S.D.) rats, weighing between 180 and 225 g on the day of dosing, were kept in polypropylene cage base with stainless steel wire top clips for three days before the experiment. The living environment of the animals was controlled as follows: 12/12-h dark/light cycle, temperature maintained between 22 to 25 °C, daily feeding with commercial pellet food, and tap water. Rats were fasted 12 h before dosing and labeled with a designated number at the base of their tails. The rats were then randomly divided into six groups as follows: • Group 1 (n = 6) were dosed orally with 20 mg/kg of free tHGA. • Group 2 (n = 6) were dosed orally with 20 mg/kg of liposomes-encapsulated tHGA. • Group 3 (n = 6) were dosed intraperitoneally with 20 mg/kg of liposomes-encapsulated tHGA • Group 4 (n = 4) were dosed orally with 20 mg/kg of liposomes-encapsulated tHGA. • Group 5 (n = 4, control) were dosed orally with blank liposomes formulation (for urine and feces collection). • Group 6 (n = 4, control) were dosed orally with blank liposomes formulation (for blood collection).
Groups 1 to 3 were used for the single-dose pharmacokinetic study. An aliquot of 200 µL of blood was drawn from each rat via the tail vein into polypropylene tubes containing a disodium K2EDTA solution (10%) as an anticoagulant at the pre-specified time points; at 0.25, 0.5, 1.5, 2, 4, 8 and 24 h for groups 1 and 2 after PO dose, and at 0.08, 0.5, 1.5, 2, 4, 8 and 24 h for group 3 after IP dose. Blood samples were centrifuged at 14,000 rpm at 20 °C for 10 min to separate the plasma which was then stored under −80 °C until further analysis. Animals were allowed to feed two hours after the first sample time point.
For the pharmacokinetic study, the same procedure used in the preparation of the standard solutions was used to extract tHGA from plasma samples.
LC-MS analysis was performed using a Thermo Scientific™ Q Exactive™ Focus Hybrid Quadrupole-Orbitrap™ Mass Spectrometer (Thermo Fisher Scientific, Bremen, Germany) attached to a Thermo Scientific Dionex Ultimate 3000 Series RS pump coupled with a Thermo Scientific Dionex Ultimate 3000 Series TCC-3000RS column compartments and a Thermo Fisher Scientific Ultimate 3000 Series WPS-3000RS autosampler (Thermo Fisher Scientific, Sunnyvale, CA, USA) controlled by Xcalibur Software 4.0 (Thermo Fisher Scientific, Waltham, MA, USA). The chromatographic separation was carried out using a Hypersil GOLD C18 column (100 × 2.1 mm, 1.9 μm) (Thermo Fisher Scientific, Waltham, MA, USA) and the mobile phase consisted of water with 0.1% formic acid (solvent A) and acetonitrile with 0.1% formic acid (solvent B). Gradient elution was run at 0.3 mL/min, with 10% solvent B at the start (t = 0 min), increasing to 70% solvent B at t = 5 min. The gradient was then maintained for 3 min at 70% solvent B until t = 8 min before again increasing solvent B to 100% until the end of the run at t = 9.5 min. The temperature of the autosampler was set to 4 °C. For the metabolism study, the same chromatographic conditions were used with a different elution system. A linear gradient elution from 0% to 100% of solvent B for 45 min was used.
Mass spectrometric detection was operated under a heated electrospray ion source (H-ESI II) in negative ionization mode. The H-ESI parameters were optimized as follows: spray voltage 3.5 kV, capillary temperature 320 °C, S-lens RF level 55, sheath gas flow rate 45, auxiliary gas 10 and sweep gas 2 (manufacturer’s units). Nitrogen was used for the source, Orbitrap bath gas, and the higher energy collision dissociation (HCD) cell collision. A targeted SIM data-dependent MS/MS (tSIM/ddMS2) acquisition was used with an inclusion mass list containing m/z and retention time of tHGA. The resolution was 35,000 (FWHM) at m/z 200, with automatic gain control (AGC) target of 5 × 10^4 ions and an auto maximum ion injection time (IT). […]

[4] = PO, 20 mg/kg, male S.D rats, plasma, mean n = 6, listed as Free tHGA

SMILES: CC(=O)c1c(O)cc(O)c(C(O)/C=C(C)/C=C/C(O)=C(C)C)c1O (stereo not drawn) [M6]
Source (sample in which the metabolite was detected) [1]: F, B

SMILES: CC(=O)c1c(O)cc(O)c(C/C=C(\C)CCCC(C)(C)O)c1O [M5]
Source (sample in which the metabolite was detected) [1]: F

SMILES: CC(=O)c1c(O)cc(O)c(C/C=C(C)/C=C/C=C(C)C)c1O [M7]
Source (sample in which the metabolite was detected) [1]: F

SMILES: CC(=O)c1c(O)cc(O)c(C/C=C(\C)CCC(O)C(C)(C)O)c1O (stereo not drawn) [M10]
Source (sample in which the metabolite was detected) [1]: F

SMILES: CC(=O)c1c(O)cc(OS(=O)(=O)O)c(C(O)/C=C(\C)CCC(O)=C(C)C)c1O (stereo not drawn) [M9]
Source (sample in which the metabolite was detected) [1]: B

SMILES: CC(=O)c1c(O)cc(O)c(C(O)/C=C(\C)CCC=C(C)C)c1O (stereo not drawn) [M3]
Source (sample in which the metabolite was detected) [1]: F, U

Other lines, results leading:

Source (sample in which the metabolite was detected) [1]: F, U
SMILES: CC(=O)c1c(O)cc(O)c(C/C=C(\C)CCC(O)=C(C)C)c1O [M2]

Source (sample in which the metabolite was detected) [1]: F
SMILES: CC(=O)c1c(O)cc(O)c(C(O)/C=C(\C)CCC(O)=C(C)C)c1O (stereo not drawn) [M4]

Stability RE (%) Short-Term (4 °C) ([2]; 1.5 ng/mL tHGA (LQC)): −4.66 ± 11.9%
Stability RE (%) Long-Term (−80 °C) ([2]; 1.5 ng/mL tHGA (LQC)): 5.93 ± 2.8%
Stability RE (%) Short-Term (4 °C) ([2]; 70 ng/mL tHGA (HQC)): 5.34 ± 6.9%
Stability RE (%) Long-Term (−80 °C) ([2]; 70 ng/mL tHGA (HQC)): 5.34 ± 5.1%
long-term stability, accuracy ([2]; LQC and HQC plasma samples, 1 month at −80 °C): 5.3–5.9%
Fr (relative oral bioavailability) ([3]; listed as Free tHGA): 9.07%
Fr (relative oral bioavailability) ([3]; listed as unformulated tHGA): 9.1%
Cmax [3, 4]: 5.35 ng/mL
t1/2 (elimination half-life) [3, 4]: 6.95 h
Tmax ([3]; Sprague-Dawley, rat, PO, 20 mg/kg, male S.D rats, plasma, mean n = 6): 0.25 h
AUC(0-t) ([3]; male, Sprague-Dawley, rat, plasma, 20 mg/kg, oral administration, rats (unit as printed in abstract), read-out: AUC0–24): 17.6 ng·h/mL
Cmax ([3]; male, Sprague-Dawley, rat, plasma, po, 20 mg/kg, PO, male S.D rats, plasma, mean n = 6, read-out: Cmax): 5.4 ng/mL
half-life ([3]; male, Sprague-Dawley, rat, plasma, po, 20 mg/kg, PO, male S.D rats, plasma, mean n = 6, read-out: t1/2 (elimination half-life) (converted)): 6.9 h
SMILES: CC(=O)c1c(O)cc(O)c(C/C=C(\C)CCC=C(C)C)c1O [tHGA, 2,4,6-trihydroxy-3-geranylacetophenone]
